Experimental data reported in patent publication US20230074252A1, “DOSAGES AND METHODS FOR TREATING PULMONARY ARTERIAL HYPERTENSION WITH RODATRISTAT” (Altavant Sciences GmbH, priority 2020, published 2023).
Like-named read-outs stand apart in the source and are kept apart here.

What was measured:
CYP3A4/5 = CYP3A4/5 (Homo sapiens, UniProt P08684); experiment: Direct and time-dependent CYP inhibition, pooled human liver microsomes; assay type: in vitro ADME
Protocol: “mM^”=millimolar. CYP induction was evaluated using cultured human hepatocytes (from 3 donors) treated once daily for 3 days with RE/R concentrations to […].
The competitive inhibition of specific CYP isoforms was investigated for RVT-1201 and KAR5417 in human liver microsomes (HLM) (XT155056). Of the […] evaluated in vitro (CYP1A2, CYP2B6, CYP2C8, CYP2C9, CYP2D6, CYP3A4, CYP3A5), RVT-1201 IC50 estimates were determined for CYP2B6, CYP2C8 and CYP3A4 only. […] For each IC50 estimate, substrate concentration and Km were used to estimate RVT-1201 and KAR5417 Ki.

CYP isoforms = experiment: Time-dependent CYP inhibition (overall statement); assay type: in vitro ADME, human
CYP3A4 = experiment: FDA guidance DDI risk assessment, perpetrator potential; design: species or system human; details: predicted @ 600 mg BID
Protocol: The potential for rodatristat ethyl or rodatristat to be perpetrators of drug-drug interactions was assessed across in vitro CYP and transporter studies (Tables 1-4). […] This analysis was performed to assess the potential for clinically meaningful DDIs as recommended in FDA Draft Guidance: “In Vitro Metabolism- and Transporter-Mediated Drug-Drug Interaction Studies Guidance for Industry”; October 2017 (FDA, 2017).
R1 and R3 values using free (non-protein bound) drug levels were calculated based on plasma protein binding (fraction bound, fb) of rodatristat ethyl (0.995) and rodatristat (0.991). The FDA Guidance is set forth In Vitro Metabolism- and Transporter-Mediated Drug-Drug Interaction Studies Guidance for Industry (2017). […] Parameters for the prediction are set forth below in Tables 5 and 6.

CYP2B6 = target: T1, CYP2B6 (Homo sapiens, UniProt P20813); experiment: In vitro CYP substrate assessment (victim potential); assay type: in vitro ADME
T1 sequence (P20813 1-491): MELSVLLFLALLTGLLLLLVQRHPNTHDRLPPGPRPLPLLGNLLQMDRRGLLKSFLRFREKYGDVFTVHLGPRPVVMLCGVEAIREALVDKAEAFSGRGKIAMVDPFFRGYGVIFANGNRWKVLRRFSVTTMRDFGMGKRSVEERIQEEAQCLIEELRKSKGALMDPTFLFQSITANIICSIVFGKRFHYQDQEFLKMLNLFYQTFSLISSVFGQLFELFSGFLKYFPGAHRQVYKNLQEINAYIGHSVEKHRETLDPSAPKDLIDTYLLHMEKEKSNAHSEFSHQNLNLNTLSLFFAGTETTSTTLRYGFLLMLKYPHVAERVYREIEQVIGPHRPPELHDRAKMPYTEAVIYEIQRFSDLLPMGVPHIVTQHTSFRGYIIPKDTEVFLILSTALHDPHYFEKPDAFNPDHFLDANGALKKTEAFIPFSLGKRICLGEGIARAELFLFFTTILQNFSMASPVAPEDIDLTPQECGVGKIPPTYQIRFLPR

CYP2C9 = CYP2C9 (Homo sapiens, UniProt P11712); experiment: as above; assay type: in vitro ADME
CYP2C19 = CYP2C19 (Homo sapiens, UniProt P33261); experiment: as above; assay type: in vitro ADME
MRP2 = MRP2 (Homo sapiens, UniProt Q92887); experiment: Transporter inhibition, in vitro; assay type: in vitro ADME; details: for Potential for interaction? (transporter inhibitor), MRP2: predicted @ 600 mg BID
OATP1B1 = target: T2, OATP1B1 (Homo sapiens, UniProt Q9Y6L6); experiment: In vitro transporter substrate assessment; assay type: in vitro ADME
T2 construct: expressed in transfected cells; host or cells: HEK293
T2 sequence (Q9Y6L6 1-691): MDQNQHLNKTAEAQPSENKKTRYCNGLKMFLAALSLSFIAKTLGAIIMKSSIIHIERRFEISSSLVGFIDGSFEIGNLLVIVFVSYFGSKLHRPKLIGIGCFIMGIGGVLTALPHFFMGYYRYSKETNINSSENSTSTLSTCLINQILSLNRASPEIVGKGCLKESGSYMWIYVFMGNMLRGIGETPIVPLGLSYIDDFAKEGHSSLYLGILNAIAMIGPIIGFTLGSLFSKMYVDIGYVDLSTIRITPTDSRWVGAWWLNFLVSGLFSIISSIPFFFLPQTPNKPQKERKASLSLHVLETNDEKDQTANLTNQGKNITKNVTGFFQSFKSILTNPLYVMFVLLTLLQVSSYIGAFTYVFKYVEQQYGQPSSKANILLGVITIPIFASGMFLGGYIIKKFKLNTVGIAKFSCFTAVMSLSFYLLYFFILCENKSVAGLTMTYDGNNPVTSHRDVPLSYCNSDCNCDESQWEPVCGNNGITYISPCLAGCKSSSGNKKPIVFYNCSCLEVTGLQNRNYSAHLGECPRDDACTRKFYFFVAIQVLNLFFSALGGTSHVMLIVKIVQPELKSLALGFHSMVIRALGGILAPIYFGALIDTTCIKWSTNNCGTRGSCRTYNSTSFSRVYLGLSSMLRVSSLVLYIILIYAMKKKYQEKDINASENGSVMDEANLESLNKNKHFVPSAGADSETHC

[1] = predicted @ 600 mg BID, testosterone

Chain of MRP2 (Q92887 whole entry): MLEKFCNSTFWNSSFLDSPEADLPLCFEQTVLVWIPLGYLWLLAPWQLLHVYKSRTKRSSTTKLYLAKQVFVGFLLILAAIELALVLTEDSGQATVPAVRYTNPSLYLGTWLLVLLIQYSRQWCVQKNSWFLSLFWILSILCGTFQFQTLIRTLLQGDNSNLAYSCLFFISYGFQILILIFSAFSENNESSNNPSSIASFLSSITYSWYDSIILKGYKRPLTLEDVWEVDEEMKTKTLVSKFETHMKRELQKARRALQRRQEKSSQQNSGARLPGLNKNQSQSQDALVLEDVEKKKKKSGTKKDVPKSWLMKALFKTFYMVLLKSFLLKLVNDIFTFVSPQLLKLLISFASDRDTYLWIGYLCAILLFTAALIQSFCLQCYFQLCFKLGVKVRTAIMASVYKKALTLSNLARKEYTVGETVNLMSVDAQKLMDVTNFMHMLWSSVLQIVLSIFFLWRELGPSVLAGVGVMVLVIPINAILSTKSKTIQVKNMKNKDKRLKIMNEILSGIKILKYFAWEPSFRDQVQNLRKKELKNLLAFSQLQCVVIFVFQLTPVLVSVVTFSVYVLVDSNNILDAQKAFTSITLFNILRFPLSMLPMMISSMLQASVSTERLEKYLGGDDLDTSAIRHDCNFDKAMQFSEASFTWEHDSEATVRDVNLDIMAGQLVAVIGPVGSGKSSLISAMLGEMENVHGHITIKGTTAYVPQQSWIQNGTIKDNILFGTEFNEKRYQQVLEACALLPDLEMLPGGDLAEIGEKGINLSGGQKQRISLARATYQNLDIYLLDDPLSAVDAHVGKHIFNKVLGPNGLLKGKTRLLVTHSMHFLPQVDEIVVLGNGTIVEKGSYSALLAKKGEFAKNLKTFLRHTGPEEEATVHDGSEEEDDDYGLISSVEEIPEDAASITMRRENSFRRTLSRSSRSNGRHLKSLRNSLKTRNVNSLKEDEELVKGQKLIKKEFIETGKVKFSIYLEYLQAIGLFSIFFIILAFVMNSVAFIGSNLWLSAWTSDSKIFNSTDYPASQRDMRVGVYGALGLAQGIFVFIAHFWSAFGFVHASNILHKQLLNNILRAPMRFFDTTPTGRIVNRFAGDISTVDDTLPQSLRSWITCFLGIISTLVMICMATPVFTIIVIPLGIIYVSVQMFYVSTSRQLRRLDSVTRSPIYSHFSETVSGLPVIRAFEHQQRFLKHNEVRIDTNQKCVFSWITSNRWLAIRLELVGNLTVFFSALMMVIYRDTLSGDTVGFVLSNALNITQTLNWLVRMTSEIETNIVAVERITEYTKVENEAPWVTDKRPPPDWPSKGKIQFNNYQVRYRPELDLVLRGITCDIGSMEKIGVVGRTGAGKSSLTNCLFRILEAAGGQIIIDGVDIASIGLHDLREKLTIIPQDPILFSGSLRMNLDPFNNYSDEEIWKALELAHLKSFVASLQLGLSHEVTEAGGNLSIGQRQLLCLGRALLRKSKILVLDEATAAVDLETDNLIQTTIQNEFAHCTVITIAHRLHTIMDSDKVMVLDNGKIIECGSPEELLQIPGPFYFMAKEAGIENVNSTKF
Chain of CYP3A4/5 (P08684 2-503): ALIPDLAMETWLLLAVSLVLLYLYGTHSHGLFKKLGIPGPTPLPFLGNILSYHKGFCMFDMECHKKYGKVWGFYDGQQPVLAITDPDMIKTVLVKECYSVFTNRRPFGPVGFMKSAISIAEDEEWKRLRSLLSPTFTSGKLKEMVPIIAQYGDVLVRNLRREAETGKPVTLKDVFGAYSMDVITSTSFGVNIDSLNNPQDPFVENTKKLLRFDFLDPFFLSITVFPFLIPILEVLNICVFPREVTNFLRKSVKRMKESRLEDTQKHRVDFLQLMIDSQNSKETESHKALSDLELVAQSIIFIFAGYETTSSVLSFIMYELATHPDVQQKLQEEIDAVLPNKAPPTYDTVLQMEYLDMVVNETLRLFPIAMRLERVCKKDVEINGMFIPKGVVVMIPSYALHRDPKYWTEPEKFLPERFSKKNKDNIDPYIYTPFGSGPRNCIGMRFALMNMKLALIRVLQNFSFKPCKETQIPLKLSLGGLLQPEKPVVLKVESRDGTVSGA
Chain of CYP2C9 (P11712 whole entry): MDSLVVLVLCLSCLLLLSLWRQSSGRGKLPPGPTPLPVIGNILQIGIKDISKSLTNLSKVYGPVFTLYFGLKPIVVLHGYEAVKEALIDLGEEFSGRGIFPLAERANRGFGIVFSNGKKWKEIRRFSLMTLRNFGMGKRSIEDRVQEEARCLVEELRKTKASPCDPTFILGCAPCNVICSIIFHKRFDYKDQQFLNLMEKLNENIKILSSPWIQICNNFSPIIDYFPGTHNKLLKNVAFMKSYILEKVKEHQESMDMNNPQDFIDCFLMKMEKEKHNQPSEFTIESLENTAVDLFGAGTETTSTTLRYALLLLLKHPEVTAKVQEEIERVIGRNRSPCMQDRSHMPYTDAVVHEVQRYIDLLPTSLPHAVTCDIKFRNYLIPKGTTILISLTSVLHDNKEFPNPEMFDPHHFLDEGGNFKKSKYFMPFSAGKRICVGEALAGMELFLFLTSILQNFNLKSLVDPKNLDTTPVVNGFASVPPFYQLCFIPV
Chain of CYP2C19 (P33261 whole entry): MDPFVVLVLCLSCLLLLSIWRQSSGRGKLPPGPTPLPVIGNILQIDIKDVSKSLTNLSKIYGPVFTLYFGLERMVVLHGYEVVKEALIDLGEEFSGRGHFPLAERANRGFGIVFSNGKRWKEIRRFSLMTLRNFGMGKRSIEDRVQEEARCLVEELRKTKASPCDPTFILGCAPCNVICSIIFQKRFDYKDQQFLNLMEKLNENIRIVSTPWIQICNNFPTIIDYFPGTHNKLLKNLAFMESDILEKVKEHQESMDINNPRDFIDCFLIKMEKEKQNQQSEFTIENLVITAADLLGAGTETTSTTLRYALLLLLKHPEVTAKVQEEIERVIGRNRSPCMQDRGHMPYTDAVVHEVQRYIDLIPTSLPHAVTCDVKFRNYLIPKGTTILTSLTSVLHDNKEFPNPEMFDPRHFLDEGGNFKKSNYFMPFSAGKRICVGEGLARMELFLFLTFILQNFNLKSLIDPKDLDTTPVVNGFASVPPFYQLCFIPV

Row | Compound | IC50 (CYP3A4/5; human, pooled human liver microsomes, probe midazolam (1′ hydroxylation), midazolam 1′ hydroxylation, read-out: In vitro IC50, direct inhibition, CYP3A4) [µM] | IC50 (CYP3A4/5; human, pooled human liver microsomes, probe testosterone (6β hydroxylation), testosterone 6β hydroxylation, read-out: In vitro IC50, direct inhibition, CYP3A4 (T)) [µM] | Calculated R1 Value, CYP3A4 (T) (CYP3A4/5; [1]) | R1gut, CYP3A4 (T) (CYP3A4/5; [1]) | Time-dependent inhibition of CYP isoforms (CYP isoforms) | Potential for interaction (perpetrator), CYP3A4 (CYP3A4) | In vitro substrate? CYP2B6 (CYP2B6) | In vitro substrate? CYP2C9 (CYP2C9) | In vitro substrate? CYP2C19 (CYP2C19) | Potential for interaction? (transporter inhibitor), MRP2 (MRP2) | In vitro substrate? OATP1B1 (OATP1B1) | inhibition at 30 µM (CYP3A4/5; human, pooled human liver microsomes, 30 μM, range given across CYPs 2B6, 2C9 and 3A4/5) [%] | IC50 (CYP3A4/5; human, pooled human liver microsomes, probe substrate not stated, read-out: IC50, CYP3A4/5) [µM] | Time-dependent inhibition of CYP isoforms (CYP isoforms; listed as rodatristat) | inhibition at 30 µM (MRP2; nominal 30 μM) [%] | Accumulation by OATP1B1 uptake transporter (OATP1B1; 3 μM) [fold]
1 | CCOC(=O)[C@@H]1CC2(CCN(c3cc(O[C@H](c4ccc(Cl)cc4-c4ccccc4)C(F)(F)F)nc(N)n3)CC2)CN1 [Rodatristat ethyl, (S)-ethyl 8-(2-amino-6-((R)-1-(5-chloro-[1,1′-biphenyl]-2-yl)-2,2,2-trifluoroethoxy)pyrimidin-4-yl)-2,8-diazaspiro[4.5]decane-3-carboxylate] | 13 | 23 | <1.02 | R1gut = 355 | not time-dependent CYP inhibitors | Yes | No | No | No | No | not a substrate and No | – | – | – | – | –
2 | Nc1nc(O[C@H](c2ccc(Cl)cc2-c2ccccc2)C(F)(F)F)cc(N2CCC3(CC2)CN[C@H](C(=O)O)C3)n1 [Rodatristat, (S)-8-(2-amino-6-((R)-1-(5-chloro-[1,1′-biphenyl]-2-yl)-2,2,2-trifluoroeth-oxy)pyrimidin-4-yl)-2,8-diazaspiro[4.5]decane-3-carboxylic acid] | – | – | – | – | – | Yes | No | No | No | No^a | is an in vitro substrate and Yes | 27 to 45 | > 30 | not time-dependent CYP inhibitors | 25 | 2.22
